# Source: PMC7703437, “In Vitro Hepatic Metabolism of Curcumin Diethyl Disuccinate by Liver S9 from Different Animal Species” (Frontiers in Pharmacology, 2020)
# Values joined by “and” are separate entries in the source; they are usually repeats but may differ in a detail not shown here. Identical values can stand only once.
# Legend:
# [1] = In vitro metabolism profiling of CDD in rat liver S9 (1 mg/ml); type: in vitro ADME, rat (Sprague–Dawley); settings: Sprague-Dawley, liver S9; rat LS9 1 mg/ml; read-out: t 1/2 (CDD)
# Protocol: (§1) The metabolism profiles of CDD were investigated against HLS9, MLS9, DLS9, and RLS9. A stock solution of CDD was prepared at 150 µM in 50% acetonitrile in water before use. The metabolism study was initiated by spiking 735 µl of preincubated LS9 with 15 µl of CDD stock solution, and the mixture was subsequently incubated at 37°C. The final concentrations of CDD and LS9 were 3 μM and 1 mg/ml, respectively. A 50-µl aliquot from the mixture was collected at 0.5, 1, 2, 3, 4, 5, 10, 15, 30, 45, 60, 90, and 120 min and immediately mixed with 100 µl of ice-cold acetonitrile containing 0.45 µM of internal standard DMC to terminate the metabolic reaction. […] The sample at the initial time point (0 min) was prepared as the other samples, except that heat-inactivated HLS9, MLS9, DLS9, and RLS9 (80°C for 20 min; 1 mg/ml protein) were used.
# (§2) The UHPLC system consisted of an Agilent series 1290 quaternary pump with an online degasser, autosampler, column oven, and diode array detector. The mobile phase was composed of (A) 0.1% (v/v) formic acid in acetonitrile and (B) 0.1% (v/v) formic acid in water. Each solution was filtered through a nylon filter (pore size, 0.22 µm; MS® Membrane Filters; Membrane Solutions, United States) before use. The mobile phase flow rate was kept at 1.2 ml/min in a gradient mode using the following elution program: 0–3.0 min, initial A-B (40:60, v/v); 4.5–7.0 min, isocratic elution A-B [50:50, (v/v); 8.5–11.0 min, isocratic elution A-B (60:40, v/v); and 12.0–17.0 min, isocratic elution A-B (40:60, v/v)]. CDD, curcumin, and MSCUR in the supernatant were partitioned using a C8 column (4.6 mm × 50 mm, 2.7 µm; HALO, Advanced Materials Technology, United States) with reference to DMC. The detection wavelength was set at 400 nm (λ max(CDD) = 400 nm, λ max(curcumin) = 427 nm, λ max(MSCUR) = 418 nm, and λ max(DMC) = 421 nm). The column was maintained at 35°C throughout the run, and the supernatant injection volume was set at 20 µl.
# (§3) The concentrations of CDD, curcumin, and MSCUR in the supernatant were determined from the standard plots, which were prepared by spiking individual working solutions of the compounds to heat-inactivated HLS9, MLS9, DLS9, and RLS9 ([Alcorn et al., 2007]; [Montoro-Garcia et al., 2009]; [Singh et al., 2010]). These working standards were extracted with 100 µl of ice-cold acetonitrile containing 0.45 µM of DMC and then 120 μl of the supernatant was diluted with 40 μl of water prior to the UHPLC analysis. The peak area ratios of CDD, curcumin, and MSCUR to the internal standard were computed against linear concentration ranges of 0.025–4.5 µM CDD, 0.025–4.5 µM curcumin, and 0.0125–0.75 µM MSCUR, respectively, with the coefficient of determination (r^2) values greater than 0.99.
# (§4) The percent content of CDD and the metabolites formed upon its incubation with LS9, namely, curcumin and MSCUR, was plotted against incubation time.
# (§5) The following equations were adopted to describe the changes in CDD and MSCUR content over time (t): A = A0e^−k1t (2) B= k1A0/k2−k1(e^−k1t−e^−k2t), (3) where A0 is the CDD concentration at time 0, k 1 is the degradation rate constant of CDD, and k 2 is the degradation rate constant of MSCUR. k 1 and k 2 were determined by using Eqs. 2 and 3, respectively, with nonlinear regression analysis using the SOLVER function of Microsoft Excel for Office 365 MSO (16.0.12527.20986) ([Brown, 2001]). The half-life (t 1/2) was calculated using Eq. 4: t1/2=0.693/k (4)
# (§6) The in vitro intrinsic clearance (CLint,in vitro) of CDD and MSCUR in LS9 was calculated using Eq. 5: CLint, in vitro= k × [V]incubation(ml)/[P]incubation(mg protein), (5) where [V]incubation is the incubation volume in ml, and [P]incubation is the amount of LS9. […]
# [2] = system: rat LS9 (RLS9; Sprague–Dawley); assay: as above; type: in vitro ADME
# Protocol: as §1, §2, §3, §4, §5, §6
# [3] = system: HLS9; assay: CDD depletion in HLS9 0.02 mg/ml (optimisation of incubation condition); type: in vitro ADME, human; settings: CDD 3 μM
# Protocol: (§7) The metabolism profiles of CDD and curcumin formation profile were investigated against HLS9, MLS9, DLS9 and RLS9. A stock solution of CDD was prepared at 150 µM in 50% acetonitrile in water before use. The metabolism study was initiated by spiking a 588 µl pre-incubated LS9 with 12 µl CDD stock solution, and subsequently incubated at 37°C. The final concentrations of CDD and LS9 were 3 µM and 0.02 mg/ml, respectively. A 50 µl aliquot from the mixture was collected at 0.5, 1, 2, 3, 4, 5, 10, 15, 30, 45 and 60 min and was immediately mixed with 100 µl of ice-cold acetonitrile containing 0.45 µM of internal standard DMC to terminate the metabolic reaction. […] Samples of 120 µl of supernatant wee diluted with 40 µl of water prior to UHPLC analysis (Agilent series 1290, Agilent Technology, USA) by means of protocol outlined in Materials and Methods:“In vitro Metabolism Profiling of Curcumin Diethyl Disuccinate”. The sample at 0 min was prepared as other samples except that heat-inactivated HLS9, MLS9, DLS9 and RLS9 (80°C for 20 min; 1 mg/ml protein) were used. Duplicates were conducted for each experiment.
# (§8) The peak area ratios of CDD and curcumin to internal standard in the supernatant were determined. The percent contents of CDD and curcumin were plotted against incubation time. The depletion of CDD was calculated with reference to the initial concentration. The saturated substrate was defined as % depletion less than 30.
# [4] = system: MLS9; assay: CDD depletion in MLS9 0.02 mg/ml (optimisation of incubation condition); type: in vitro ADME, monkey; settings: CDD 3 μM
# Protocol: as §7, §8
smiles,measurement,setting,value
"CCOC(=O)CCC(=O)Oc1ccc(/C=C/C(=O)/C=C(O)/C=C/c2ccc(OC(=O)CCC(=O)OCC)c(OC)c2)cc1OC [CDD, curcumin diethyl disuccinate]",half-life at 3 µM,[1],1.04 ± 0.18 min
same,"CLint, in vitro(CDD)",[2]; rat LS9,0.68 ± 0.13 ml min^−1 mg protein^−1
same,k 1 (CDD),"[2]; rat LS9 1 mg/ml, CDD 3 µM, 37°C",0.68 ± 0.13 min⁻¹
same,"CLint, in vivo(CDD)","[2]; rat, scaled from CLint,in vitro with physiologically based scaling factors",197.51 ± 37.52 L/h/kg
same,"CLint, in vivo total","[2]; rat, sum of CLint,in vivo(CDD) and CLint,in vivo(MSCUR)","3,002.88 ± 180.63 L h^−1 kg^−1"
same,CLH (predicted hepatic clearance),"[2]; rat, well-stirred model, QH 70 ml min^−1 kg^−1, fup 0.0594",4.10 ± 5.77 × 10^–3 L h^−1 kg^−1
same,% CDD remaining,[3]; 0.5 min,82.88%
same,%Depletion of CDD,[3]; 0.5 min,17.12%
same,% CDD remaining,[3]; 1 min,80.95%
same,%Depletion of CDD,[3]; 1 min (selected incubation time),19% and 19.05%
same,% CDD remaining,[3]; 2 min,68.18%
same,%Depletion of CDD,[3]; 2 min,31.82%
same,% CDD remaining,[3]; 3 min,57.46%
same,%Depletion of CDD,[3]; 3 min,42.54%
same,% CDD remaining,[3]; 4 min,43.15%
same,%Depletion of CDD,[3]; 4 min,56.85%
same,% CDD remaining,[3]; 5 min,36.37%
same,%Depletion of CDD,[3]; 5 min,63.63%
same,% CDD remaining,[4]; 0.5 min,75.32%
same,%Depletion of CDD,[4]; 0.5 min (selected incubation time),25% and 24.68%
same,% CDD remaining,[4]; 1 min,63.90%
same,%Depletion of CDD,[4]; 1 min,36.10%
same,% CDD remaining,[4]; 2 min,49.34%
same,%Depletion of CDD,[4]; 2 min,50.66%
same,% CDD remaining,[4]; 3 min,37.51%
same,%Depletion of CDD,[4]; 3 min,62.49%
same,% CDD remaining,[4]; 4 min,28.36%
same,%Depletion of CDD,[4]; 4 min,71.64%
same,% CDD remaining,[4]; 5 min,21.92%
same,%Depletion of CDD,[4]; 5 min,78.08%
